# Laboratory results reported in patent publication US6528456B2, “Herbicidal 2-pyrazolyl-6-aryloxypyri(mi)dines” (BASF Aktiengesellschaft, priority 1999, dated 2003).
# Key:
# Assay type in all cases: in vivo
# Stellaria media = assay: Pre-emergence test; settings: 3 weeks after treatment
# Protocol: (§1) To evaluate their herbicidal activity, compounds according to the invention are tested using a representative range of plants: STEME Stellaria media The pre-emergence tests involve spraying a liquid formulation of the compound onto the soil in which the seeds of the plant species mentioned above has recently been sown. The soil used in the tests is a prepared horticultural loam. The formulations used in the tests are prepared from solutions of the test compounds in acetone containing 0.4% by weight of an alkylphenol/ethylene oxide condensate available under the trade mark TRITON X-155. These acetone solutions are diluted with water and the resulting formulations applied at dosage levels corresponding to 0.025 kg, 0.100 kg or 0.400 kg of active material per hectare in a volume equivalent to 900 litres per hectare. In these tests untreated sown soil are used as controls. From 2 to 4 weeks after treatment, the tests are terminated and each pot is examined and rated according to the rating system set forth below: [table]
# Galium aparine = assay: Post-emergence test; settings: 2-4 weeks after treatment
# Protocol: (§2) To evaluate their herbicidal activity, compounds according to the invention are tested using a representative range of plants: GALAP Galium aparine [table] […] These acetone solutions are diluted with water and the resulting formulations applied at dosage levels equivalent of about 0.1 to 0. 4 kg per hectare of test compound per pot. After spraying the plants are placed on greenhouse benches and are cared for in the usual manner, commensurate with conventional greenhouse practices. From 2 to 4 weeks after treatment, the seedling plants are examined and rated according to the rating system provided above.
# Setaria viridis = assay: Pre-emergence test; settings: 3 weeks after treatment
# Protocol: as §1, with “SETVI Setaria viridis” for “STEME Stellaria media”
# Matricaria inodora = assay: Post-emergence test; settings: 2-4 weeks after treatment
# Protocol: as §2, with “MATIN Matricaria inodora” for “GALAP Galium aparine”
# Alopecurus myosuroides = assay: Post-emergence test; settings: 2-4 weeks after treatment
# Protocol: as §2, with “ALOMY Alopecurus myosuroides” for “GALAP Galium aparine”
# Abutilon theophrasti = assay: Pre-emergence test; settings: 3 weeks after treatment
# Protocol: as §1, with “ABUTH Abutilon theophrasti” for “STEME Stellaria media”
# Triticum aestivum = assay: Post-emergence test; settings: 2-4 weeks after treatment
# Protocol: as §2, with “TRZAW Triticum aestivum” for “GALAP Galium aparine”
# Glycine max = assay: Post-emergence test; settings: 2-4 weeks after treatment
# Protocol: To evaluate their herbicidal activity, compounds according to the invention are tested using a representative range of plants:
# These acetone solutions are diluted with water and the resulting formulations applied at dosage levels equivalent of about 0.1 to 0. 4 kg per hectare of test compound per pot. After spraying the plants are placed on greenhouse benches and are cared for in the usual manner, commensurate with conventional greenhouse practices. From 2 to 4 weeks after treatment, the seedling plants are examined and rated according to the rating system provided above.
# Ipomoea hederacea = assay: Post-emergence test; settings: 2-4 weeks after treatment
# Protocol: as §2, with “IPHOE Ipomoea hederacea” for “GALAP Galium aparine”
SMILES,STEME herbicidal rating (Stellaria media; 0.025 kg/ha),STEME herbicidal rating (Stellaria media; 0.100 kg/ha),STEME herbicidal rating (Stellaria media; 0.400 kg/ha),GALAP herbicidal rating (Galium aparine; 0.1 kg/ha),GALAP herbicidal rating (Galium aparine; 0.4 kg/ha),SETVI herbicidal rating (Setaria viridis; 0.025 kg/ha),SETVI herbicidal rating (Setaria viridis; 0.100 kg/ha),SETVI herbicidal rating (Setaria viridis; 0.400 kg/ha),MATIN herbicidal rating (Matricaria inodora; 0.1 kg/ha),MATIN herbicidal rating (Matricaria inodora; 0.4 kg/ha),ALOMY herbicidal rating (Alopecurus myosuroides; 0.1 kg/ha),ALOMY herbicidal rating (Alopecurus myosuroides; 0.4 kg/ha),ABUTH herbicidal rating (Abutilon theophrasti; 0.100 kg/ha),ABUTH herbicidal rating (Abutilon theophrasti; 0.400 kg/ha),TRZAW herbicidal rating (Triticum aestivum; 0.1 kg/ha),TRZAW herbicidal rating (Triticum aestivum; 0.4 kg/ha),GLXMA herbicidal rating (Glycine max; 0.1 kg/ha),GLXMA herbicidal rating (Glycine max; 0.4 kg/ha),IPOHE herbicidal rating (Ipomoea hederacea; 0.1 kg/ha),IPOHE herbicidal rating (Ipomoea hederacea; 0.4 kg/ha),also measured
"Cn1nc(C(F)(F)F)cc1Oc1cc(C#N)cc(-c2cc(C(F)(F)F)nn2C)n1 [Example 3, 4-Cyano-2-(1-methyl-3-trifluoromethylpyrazol-5-yloxy)-6-(1-methyl-3-trifluoromethylpyrazol-5-yl)pyridine]",8 (8 - Approaching complete kill),9 (9 - Complete kill),9 (9 - Complete kill),3 (3 - Moderate effect),9 (9 - Complete kill),3 (3 - Moderate effect),5 (5 - Definite injury),8 (8 - Approaching complete kill),8 (8 - Approaching complete kill),8 (8 - Approaching complete kill),3 (3 - Moderate effect),4 (4 - Injury),5 (5 - Definite injury),8 (8 - Approaching complete kill),3 (3 - Moderate effect),4 (4 - Injury),3 (3 - Moderate effect),4 (4 - Injury),6 (6 - Herbicidal effect),8 (8 - Approaching complete kill),ABUTH herbicidal rating (Abutilon theophrasti; 0.025 kg/ha): 1 (1 - Trace effect)
"Cc1cnc(-c2cc(C(F)(F)F)nn2C)nc1Oc1cc(C(F)(F)F)nn1C [Example 4, 2-(1-Methyl-3-trifluoromethylpyrazol-5-yl)-6-(1-methyl-3-trifluoromethylpyrazol-5-yloxy)-5-methylpyrimidine]",9 (9 - Complete kill),9 (9 - Complete kill),9 (9 - Complete kill),8 (8 - Approaching complete kill),9 (9 - Complete kill),8 (8 - Approaching complete kill),9 (9 - Complete kill),9 (9 - Complete kill),5 (5 - Definite injury),7 (7 - Good herbicidal effect),5 (5 - Definite injury),7 (7 - Good herbicidal effect),7 (7 - Good herbicidal effect),9 (9 - Complete kill),3 (3 - Moderate effect),5 (5 - Definite injury),4 (4 - Injury),6 (6 - Herbicidal effect),9 (9 - Complete kill),9 (9 - Complete kill),ABUTH herbicidal rating (Abutilon theophrasti; 0.025 kg/ha): 4 (4 - Injury)
Cc1cc(Oc2cccc(C(F)(F)F)c2)nc(-c2cc(C(F)(F)F)nn2C)c1 [Example 63],,3 (3 - Moderate effect),9 (9 - Complete kill),5 (5 - Definite injury),5 (5 - Definite injury),1 (1 - Trace effect),5 (5 - Definite injury),9 (9 - Complete kill),5 (5 - Definite injury),7 (7 - Good herbicidal effect),1 (1 - Trace effect),2 (2 - Slight effect),0 (0 - No effect),2 (2 - Slight effect),3 (3 - Moderate effect),3 (3 - Moderate effect),3 (3 - Moderate effect),7 (7 - Good herbicidal effect),8 (8 - Approaching complete kill),8 (8 - Approaching complete kill),
